These compounds were tested against Factor D (Homo sapiens, UniProt P00746) (assay: Factor D esterolytic assay (Z-Lys-SBzl thioester substrate, DTNB, 405 nm)). Details: substrate Z-Lys-SBzl 1.29 mM, 100 mM HEPES, 500 mM NaCl, pH 7.5, 10% DMSO, tested a minimum of three times.
Assay type: biochemical
Outline: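 Run in pH 7.5 HEPES (100 mM) with 500 mM NaCl and 10% DMSO, with compound preincubated at room temperature or not before adding 1.29 mM Z-Lys-SBzl. Free thiol released by Factor D reacts with DTNB, and rate is followed at 405 nm minus 690 nm over 600 s. IC50 derives from rate-based inhibition, minimum three replicates.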

Factor D, sequence (P00746 26-253): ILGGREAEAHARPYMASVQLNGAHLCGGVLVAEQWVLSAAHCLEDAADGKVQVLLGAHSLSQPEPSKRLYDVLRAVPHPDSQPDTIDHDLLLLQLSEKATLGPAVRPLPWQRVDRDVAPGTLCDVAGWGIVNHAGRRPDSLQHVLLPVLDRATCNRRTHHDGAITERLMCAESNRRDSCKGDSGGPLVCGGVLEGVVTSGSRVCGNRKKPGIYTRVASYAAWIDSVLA

SMILES | IC50 [nM]
Nc1ncnc2c1c1ncccc1n2CC(=O)N1[C@@H]2C[C@@H]2C[C@H]1C(=O)Nc1cccc(Br)n1 [Compound 31f, (1R,3S,5R)-2-(2-(4-amino-9H-pyrido[2′,3′:4,5]pyrrolo[2,3-d]pyrimidin-9-yl)acetyl)-N-(6-bromopyridin-2-yl)-2-azabicyclo[3.1.0]hexane-3-carboxamide] | < 100
Cc1nc(C(F)(F)F)cc2c3c(N)ncnc3n(CC(=O)N3[C@@H]4C[C@@H]4C[C@H]3C(=O)Nc3cccc(Br)n3)c12 [Compound 346g, (1R,3S,5R)-2-(2-(4-amino-8-methyl-6-(trifluoromethyl)-9H-pyrido[4′,3′:4,5]pyrrolo[2,3-d]pyrimidin-9-yl)acetyl)-N-(6-bromopyridin-2-yl)-2-azabicyclo[3.1.0]hexane-3-carboxamide] | < 100
Nc1ncnc2c1ncn2CC(=O)N1[C@@H]2C[C@@H]2C[C@H]1C(=O)Nc1cccc(Br)n1 [Compound 84a, (1R,3S,5R)-2-(2-(6-amino-9H-purin-9-yl)acetyl)-N-(6-bromopyridin-2-yl)-2-azabicyclo[3.1.0]hexane-3-carboxamide] | 100 to 1000
COC(=O)c1ccc2c(c1)c1c(N)ncnc1n2CC(=O)N1[C@H](C(=O)Nc2cccc(Br)n2)C[C@@]2(C)C[C@@H]12 [Compound 40a, methyl 4-amino-9-(2-((1R,3S,5R)-3-((6-bromopyridin-2-yl)carbamoyl)-5-methyl-2-azabicyclo[3.1.0]hexan-2-yl)-2-oxoethyl)-9H-pyrimido[4,5-b]indole-6-carboxylate] | < 100
COC(=O)c1cccc2c1c1c(N)ncnc1n2CC(=O)N1[C@H](C(=O)Nc2cccc(Br)n2)C[C@@]2(C)C[C@@H]12 [Compound 221c, methyl 4-amino-9-(2-((1R,3S,5R)-3-((6-bromopyridin-2-yl)carbamoyl)-5-methyl-2-azabicyclo[3.1.0]hexan-2-yl)-2-oxoethyl)-9H-pyrimido[4,5-b]indole-5-carboxylate] | < 100
Cc1cc(-c2cccnc2)cc2c3c(N)ncnc3n(CC(=O)N3[C@@H]4C[C@@H]4C[C@H]3C(=O)Nc3cccc(Br)n3)c12 [Compound 288c, (1R,3S,5R)-2-(2-(4-amino-8-methyl-6-(pyridin-3-yl)-9H-pyrimido[4,5-b]indol-9-yl)acetyl)-N-(6-bromopyridin-2-yl)-2-azabicyclo[3.1.0]hexane-3-carboxamide] | < 100
Nc1ncnc2c1c1cc(CO)ccc1n2CC(=O)N1[C@@H]2C[C@@H]2C[C@H]1C(=O)Nc1cccc(Br)n1 [Compound 195e, (1R,3S,5R)-2-(2-(4-amino-6-(hydroxymethyl)-9H-pyrimido[4,5-b]indol-9-yl)acetyl)-N-(6-bromopyridin-2-yl)-2-azabicyclo[3.1.0]hexane-3-carboxamide] | < 100
COc1cc2c(cc1C(F)(F)F)c1c(N)ncnc1n2CC(=O)N1[C@H](C(=O)Nc2cccc(Br)n2)C[C@@]2(C)C[C@@H]12 [Compound 368a, (1R,3S,5R)-2-(2-(4-amino-7-methoxy-6-(trifluoromethyl)-9H-pyrimido[4,5-b]indol-9-yl)acetyl)-N-(6-bromopyridin-2-yl)-5-methyl-2-azabicyclo[3.1.0]hexane-3-carboxamide] | < 100
Cc1ccc2c(c1)c1c(N)ncnc1n2CC(=O)N1[C@@H]2C[C@@H]2C[C@H]1C(=O)Nc1cccc(Br)n1 [Compound 6e, (1R,3S,5R)-2-(2-(4-amino-6-methyl-9H-pyrimido[4,5-b]indol-9-yl)acetyl)-N-(6-bromopyridin-2-yl)-2-azabicyclo[3.1.0]hexane-3-carboxamide] | < 100
Nc1ncnc2c1c1cc(-c3ccncc3)ccc1n2CC(=O)N1[C@@H]2C[C@@H]2C[C@H]1C(=O)Nc1cccc(Br)n1 [Compound 226c, (1R,3S,5R)-2-(2-(4-amino-6-(pyridin-4-yl)-9H-pyrimido[4,5-b]indol-9-yl)acetyl)-N-(6-bromopyridin-2-yl)-2-azabicyclo[3.1.0]hexane-3-carboxamide] | < 100
Cc1cc(-c2ccccc2)cc2c3c(N)ncnc3n(CC(=O)N3[C@@H]4C[C@@H]4C[C@H]3C(=O)Nc3cccc(Br)n3)c12 [Compound 229c, (1R,3S,5R)-2-(2-(4-amino-8-methyl-6-phenyl-9H-pyrimido[4,5-b]indol-9-yl)acetyl)-N-(6-bromopyridin-2-yl)-2-azabicyclo[3.1.0]hexane-3-carboxamide] | < 100
Cc1cc(C(F)(F)F)cc2c3c(N)ncnc3n(CC(=O)N3[C@H](C(=O)Nc4cccc(Br)n4)C[C@@]4(C)C[C@@H]34)c12 [Compound 184g, (1R,3S,5R)-2-(2-(4-amino-8-methyl-6-(trifluoromethyl)-9H-pyrimido[4,5-b]indol-9-yl)acetyl)-N-(6-bromopyridin-2-yl)-5-methyl-2-azabicyclo[3.1.0]hexane-3-carboxamide] | < 100
CC(C)(C)OC(=O)Nc1ccc2c(c1)c1c(N)ncnc1n2CC(=O)N1[C@@H]2C[C@@H]2C[C@H]1C(=O)Nc1cccc(Br)n1 [Compound 48d, tert-butyl (4-amino-9-(2-((1R,3S,5R)-3-((6-bromopyridin-2-yl)carbamoyl)-2-azabicyclo[3.1.0]hexan-2-yl)-2-oxoethyl)-9H-pyrimido[4,5-b]indol-6-yl)carbamate] | < 100
Cc1cc(C(F)(F)F)cc2c3c(N)ncnc3n(CC(=O)N3C[C@](C)(F)C[C@H]3C(=O)Nc3cccc(Br)n3)c12 [Compound 304a, (2S,4R)-1-(2-(4-amino-8-methyl-6-(trifluoromethyl)-9H-pyrimido[4,5-b]indol-9-yl)acetyl)-N-(6-bromopyridin-2-yl)-4-fluoro-4-methylpyrrolidine-2-carboxamide] | < 100
COc1cc(OC)c2c(c1)c1c(N)ncnc1n2CC(=O)N1[C@@H]2C[C@@H]2C[C@H]1C(=O)Nc1cccc(Br)n1 [Compound 278g, (1R,3S,5R)-2-(2-(4-amino-6,8-dimethoxy-9H-pyrimido[4,5-b]indol-9-yl)acetyl)-N-(6-bromopyridin-2-yl)-2-azabicyclo[3.1.0]hexane-3-carboxamide] | < 100
C[C@@]12C[C@@H](C(=O)Nc3cccc(Br)n3)N(C(=O)Cn3c4ccc(Br)cc4c4c(N)ncnc43)[C@@H]1C2 [Compound 160a, (1R,3S,5R)-2-(2-(4-amino-6-bromo-9H-pyrimido[4,5-b]indol-9-yl)acetyl)-N-(6-bromopyridin-2-yl)-5-methyl-2-azabicyclo[3.1.0]hexane-3-carboxamide] | < 100
C[C@@]1(F)C[C@@H](C(=O)Nc2cncc(Br)n2)N(C(=O)Cn2c3ccc(C(F)(F)F)cc3c3c(N)ncnc32)C1 [Compound 213d, (2S,4R)-1-(2-(4-amino-6-(trifluoromethyl)-9H-pyrimido[4,5-b]indol-9-yl)acetyl)-N-(6-bromopyrazin-2-yl)-4-fluoro-4-methylpyrrolidine-2-carboxamide] | < 100
Cc1ccc(Cl)nc1NC(=O)[C@@H]1C[C@@]2(C)C[C@H]2N1C(=O)Cn1c2ncnc(N)c2c2cc(C(F)(F)F)cc(C)c21 [Compound 332c, (1R,3S,5R)-2-(2-(4-amino-8-methyl-6-(trifluoromethyl)-9H-pyrimido[4,5-b]indol-9-yl)acetyl)-N-(6-chloro-3-methylpyridin-2-yl)-5-methyl-2-azabicyclo[3.1.0]hexane-3-carboxamide] | < 100
Nc1ncnc2c1c1cc(O)ccc1n2CC(=O)N1[C@@H]2C[C@@H]2C[C@H]1C(=O)Nc1cccc(Br)n1 [Compound 166a, (1R,3S,5R)-2-(2-(4-amino-6-hydroxy-9H-pyrimido[4,5-b]indol-9-yl)acetyl)-N-(6-bromopyridin-2-yl)-2-azabicyclo[3.1.0]hexane-3-carboxamide] | < 100
Nc1ncnc2c1c1cc(C(F)(F)F)ccc1n2CC(=O)N1C(=O)OC[C@H]1C(=O)NCc1cccc(Cl)c1F [Compound 251f, (S)-3-(2-(4-amino-6-(trifluoromethyl)-9H-pyrimido[4,5-b]indol-9-yl)acetyl)-N-(3-chloro-2-fluorobenzyl)-2-oxooxazolidine-4-carboxamide] | 100 to 1000
Cc1cc(O)cc2c3c(N)ncnc3n(CC(=O)N3[C@@H]4C[C@@H]4C[C@H]3C(=O)Nc3cccc(Br)n3)c12 [Compound 282a, (1R,3S,5R)-2-(2-(4-amino-6-hydroxy-8-methyl-9H-pyrimido[4,5-b]indol-9-yl)acetyl)-N-(6-bromopyridin-2-yl)-2-azabicyclo[3.1.0]hexane-3-carboxamide] | < 100
CN(C)c1nc(N)c2ncn(CC(=O)N3[C@@H]4C[C@@H]4C[C@H]3C(=O)NCc3cccc(Cl)c3F)c2n1 [Compound 96e, (1R,3S,5R)-2-(2-(6-amino-2-(dimethylamino)-9H-purin-9-yl)acetyl)-N-(3-chloro-2-fluorobenzyl)-2-azabicyclo[3.1.0]hexane-3-carboxamide] | > 1000
Nc1ncnc2c1ncn2CC(=O)N1CCC[C@H]1C(=O)NCc1cccc(Cl)c1F [Compound 119a, (S)-1-(2-(6-amino-9H-purin-9-yl)acetyl)-N-(3-chloro-2-fluorobenzyl)pyrrolidine-2-carboxamide] | 100 to 1000
COc1cc(C)c2c(c1)c1c(N)ncnc1n2CC(=O)N1[C@@H]2C[C@@H]2C[C@H]1C(=O)Nc1cccc(Br)n1 [Compound 257g, (1R,3S,5R)-2-(2-(4-amino-6-methoxy-8-methyl-9H-pyrimido[4,5-b]indol-9-yl)acetyl)-N-(6-bromopyridin-2-yl)-2-azabicyclo[3.1.0]hexane-3-carboxamide] | < 100
C[C@@]1(F)C[C@@H](C(=O)Nc2cccc(Br)n2)N(C(=O)Cn2c3ccc(C(F)(F)F)cc3c3c(N)ncnc32)C1 [Compound 207b, (2S,4R)-1-(2-(4-amino-6-(trifluoromethyl)-9H-pyrimido[4,5-b]indol-9-yl)acetyl)-N-(6-bromopyridin-2-yl)-4-fluoro-4-methylpyrrolidine-2-carboxamide] | < 100

Reference: patent US12679843B2, “Pyrrolopyrimidine amines as complement inhibitors” (BioCryst Pharmaceuticals, Inc., priority 2020, dated 2026)
